Test results as given in patent US20100137305A1, “AMINOPYRIMIDINES USEFUL AS KINASE INHIBITORS” (VERTEX PHARMACEUTICALS INCORPORATED, priority 2008, published 2010).
pIC50, pKi: −log10 of the molar value. Read-outs that look alike come from different tables or passages of the source.

Assays:
[1] = target: Aurora-1 (Aurora B) (Homo sapiens, UniProt Q96GD4); assay: Aurora-1 (Aurora B) Inhibition Assay (radiometric); assay type: biochemical; conditions: 800 μM ATP; read-out: Aurora B kinase activity Ki
Protocol: An assay buffer solution was prepared which consisted of 25 mM HEPES (pH 7.5), 10 mM MgCl2, 0.1% BSA and 10% glycerol. A 22 nM Aurora-B solution, also containing 1.7 mM DTT and 1.5 mM Kemptide (LRRASLG), was prepared in assay buffer. To 22 μL of the Aurora-B solution, in a 96-well plate, was added 2 μl of a compound stock solution in DMSO and the mixture allowed to equilibrate for 10 minutes at 25° C. The enzyme reaction was initiated by the addition of 16 μl stock [γ-^33P]-ATP Pi-ATP solution (˜20 nCi/μL) prepared in assay buffer, to a final assay concentration of 800 μM. The reaction was stopped after 3 hours by the addition of 16 μL 500 mM phosphoric acid and the levels of ^33P incorporation into the peptide substrate were determined by the following method.
A phosphocellulose 96-well plate (Millipore, Cat no. MAPHNOB50) was pre-treated with 100 μL of a 100 mM phosphoric acid prior to the addition of the enzyme reaction mixture (40 μL). The solution was left to soak on to the phosphocellulose membrane for 30 minutes and the plate subsequently washed four times with 200 μL of a 100 mM phosphoric acid. To each well of the dry plate was added 30 μL of Optiphase ‘SuperMix’ liquid scintillation cocktail (Perkin Elmer) prior to scintillation counting (1450 Microbeta Liquid Scintillation Counter, Wallac). Levels of non-enzyme catalyzed background radioactivity were determined by adding 16 μL of the 500 mM phosphoric acid to control wells, containing all assay components (which acts to denature the enzyme), prior to the addition of the [γ-^33P]-ATP solution. Levels of enzyme catalyzed ^33P incorporation were calculated by subtracting mean background counts from those measured at each inhibitor concentration. For each Ki determination 8 data points, typically covering the concentration range 0-10 μM compound, were obtained in duplicate (DMSO stocks were prepared from an initial compound stock of 10 mM with subsequent 1:2.5 serial dilutions). Ki values were calculated from initial rate data by non-linear regression using the Prism software package (Prism 3.0, Graphpad Software, San Diego, Calif.).

[2] = target: N-terminally truncated (Δ 27) Abl kinase (Homo sapiens, UniProt P00519); assay: Abl Kinase Activity Inhibition Assay, coupled enzyme system; assay type: biochemical; conditions: 110 μM ATP, 30° C.
Protocol: Compounds were screened for their ability to inhibit N-terminally truncated (Δ 27) Abl kinase activity using a standard coupled enzyme system (Fox et al., Protein Sci., 7, pp. 2249 (1998)). Reactions were carried out in a solution containing 100 mM HEPES (pH 7.5), 10 mM MgCl2, 25 mM NaCl, 300 μM NADH, 1 mM DTT and 3% DMSO. Final substrate concentrations in the assay were 110 μM ATP (Sigma Chemicals, St Louis, Mo.) and 70 μM peptide (EAIYAAPFAKKK, American Peptide, Sunnyvale, Calif.). Reactions were carried out at 30° C. and 21 nM Abl kinase. Final concentrations of the components of the coupled enzyme system were 2.5 mM phosphoenolpyruvate, 200 μM NADH, 60 μg/ml pyruvate kinase and 20 μg/ml lactate dehydrogenase.
An assay stock buffer solution was prepared containing all of the reagents listed above with the exception of ATP and the test compound of interest. The assay stock buffer solution (60 μl) was incubated in a 96 well plate with 2 μl of the test compound of interest at final concentrations typically spanning 0.002 μM to 30 μM at 30° C. for 10 min. Typically, a 12 point titration was prepared by serial dilutions (from 1 mM compound stocks) with DMSO of the test compounds in daughter plates. The reaction was initiated by the addition of 5 μl of ATP (final concentration 110 μM). Rates of reaction were obtained using a Molecular Devices Spectramax plate reader (Sunnyvale, Calif.) over 10 min at 30° C. The Ki values were determined from the residual rate data as a function of inhibitor concentration using nonlinear regression (Prism 3.0, Graphpad Software, San Diego, Calif.).

[3] = target: T1, T315I mutant of human Abl (Homo sapiens, UniProt P00519, T315I); assay: Mutant Abl Kinase (T315I) Activity Inhibition Assay (Upstate, radiometric); assay type: biochemical
T1 construct: purchased Upstate Cell Signaling Solutions (Dundee, UK)

[4] = system: Colo205 cells; assay: Analysis of Cell Proliferation, 3H thymidine incorporation; assay type: cell-based; conditions: Homo sapiens
Protocol: Compounds were screened for their ability to inhibit cell proliferation using Colo205 cells obtained from ECACC and using the assay shown below.
Colo205 cells were seeded in 96 well plates and serially diluted compound was added to the wells in duplicate. Control groups included untreated cells, the compound diluent (0.1% DMSO alone) and culture medium without cells. The cells were then incubated for 72 or 96 hrs at 37C in an atmosphere of 5% CO2/95% humidity.
To measure proliferation, 3 h prior to the end of the experiment 0.5 μCi of 3H thymidine was added to each well. Cells were then harvested and the incorporated radioactivity counted on a Wallac microplate beta-counter. Dose response curves were calculated using either Prism 3.0 (GraphPad) or SoftMax Pro 4.3.1 LS (Molecular Devices) software.

[5] = target: T2, Aurora-2 (Aurora A) (Homo sapiens, UniProt O14965); assay: Aurora-2 (Aurora A) Inhibition Assay, coupled enzyme assay; assay type: biochemical; conditions: 400 μM ATP, 30° C.; read-out: Aurora A kinase activity Ki
T2 sequence (O14965 1-403): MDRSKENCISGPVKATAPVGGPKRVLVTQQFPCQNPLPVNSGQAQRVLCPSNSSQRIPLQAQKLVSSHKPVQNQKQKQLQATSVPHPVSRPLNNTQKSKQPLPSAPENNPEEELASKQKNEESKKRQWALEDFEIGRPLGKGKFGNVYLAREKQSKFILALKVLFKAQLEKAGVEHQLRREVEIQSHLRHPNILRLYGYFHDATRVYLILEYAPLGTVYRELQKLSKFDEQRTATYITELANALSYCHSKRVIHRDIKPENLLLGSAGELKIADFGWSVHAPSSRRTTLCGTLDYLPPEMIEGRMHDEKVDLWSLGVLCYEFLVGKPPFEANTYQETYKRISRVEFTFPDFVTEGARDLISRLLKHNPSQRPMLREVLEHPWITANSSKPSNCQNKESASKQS
Protocol: Compounds were screened for their ability to inhibit Aurora-2 using a standard coupled enzyme assay (Fox et al., Protein Sci., (1998) 7, 2249). Assays were carried out in a mixture of 100 mM Hepes (pH7.5), 10 mM MgCl2, 1 mM DTT, 25 mM NaCl, 2.5 mM phosphoenolpyruvate, 300 μM NADH, 30 μg/ml pyruvate kinase and 10 μg/ml lactate dehydrogenase. Final substrate concentrations in the assay were 400 μM ATP (Sigma Chemicals) and 570 μM peptide (Kemptide, American Peptide, Sunnyvale, Calif.). Assays were carried out at 30° C. and in the presence of 40 nM Aurora-2.
An assay stock buffer solution was prepared containing all of the reagents listed above, with the exception of Aurora-2 and the test compound of interest. 55 μl of the stock solution was placed in a 96 well plate followed by addition of 2 μl of DMSO stock containing serial dilutions of the test compound (typically starting from a final concentration of 7.5 μM). The plate was preincubated for 10 minutes at 30° C. and the reaction initiated by addition of 10 μl of Aurora-2. Initial reaction rates were determined with a Molecular Devices SpectraMax Plus plate reader over a 10 minute time course. IC50 and Ki data were calculated from non-linear regression analysis using the Prism software package (GraphPad Prism version 3.0cx for Macintosh, GraphPad Software, San Diego Calif., USA).

[6] = COLO 205, 72 h, 72 hours, read-out: IC50 cell proliferation after 72 hours
[7] = COLO 205, 96 h, 96 hours, read-out: IC50 cell proliferation after 96 hours

Sequence of Aurora-1 (Aurora B) (Q96GD4 whole entry): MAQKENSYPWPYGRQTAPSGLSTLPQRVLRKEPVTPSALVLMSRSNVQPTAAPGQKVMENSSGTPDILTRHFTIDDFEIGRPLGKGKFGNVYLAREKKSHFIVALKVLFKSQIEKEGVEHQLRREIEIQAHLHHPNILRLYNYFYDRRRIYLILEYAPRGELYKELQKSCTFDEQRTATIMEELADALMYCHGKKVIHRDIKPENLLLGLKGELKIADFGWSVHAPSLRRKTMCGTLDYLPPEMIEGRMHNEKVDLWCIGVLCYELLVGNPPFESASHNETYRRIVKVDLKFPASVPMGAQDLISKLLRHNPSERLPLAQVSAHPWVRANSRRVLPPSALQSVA

| Structure (SMILES) | pKi [1] | pKi [2] | pKi [3] | pIC50 [4, 6] | pIC50 [4, 7] | pKi [5] |
| --- | --- | --- | --- | --- | --- | --- |
| Cc1cc(Nc2cc(N3CCC(F)(F)C3)nc(Sc3ccc(NC(=O)CC(F)(F)F)cc3)n2)[nH]n1 [Compound I-27] | 7.30 to 8.00 | 7.00 to 7.60 | > 6.70 | 6.90 to 7.60 | 6.70 to 7.30 | ≥ 8.00 |
| Cc1cc(Nc2cc(N3CCC(N4CCC(F)C4)CC3)nc(Sc3ccc(NC(=O)CC(F)(F)F)cc3)n2)[nH]n1 (stereo not drawn) [Compound I-63] | ≥ 8.00 | 7.00 to 7.60 | > 6.70 | ≥ 7.60 |  | ≥ 8.00 |
| CCC(=O)Nc1ccc(Sc2nc(Nc3cc(C)n[nH]3)cc(N3CCC(C(C)(C)O)CC3)n2)cc1 [Compound I-42] | 7.30 to 8.00 | 7.00 to 7.60 | 6.30 to 6.70 |  | ≥ 7.30 | ≥ 8.00 |
| Cc1cc(Nc2cc(N3CCC(O)CC3)nc(Sc3ccc(NC(=O)CC(F)(F)F)cc3)n2)[nH]n1 [Compound I-80] | ≥ 8.00 | 7.00 to 7.60 | > 6.70 | 6.90 to 7.60 |  | ≥ 8.00 |
| Cc1cc(Nc2cc(N3CCC(N4CCCC4)CC3)nc(Sc3ccc(NC(=O)C4(C(F)(F)F)CC4)cc3)n2)[nH]n1 [Compound I-65] | 7.30 to 8.00 | 7.00 to 7.60 | > 6.70 | ≥ 7.60 |  | ≥ 8.00 |
| CN[C@H]1CCN(c2cc(Nc3ncc(C)s3)nc(Sc3ccc(NC(=O)C4CC4)cc3)n2)C1 [Compound I-52] |  | > 7.60 |  |  | ≥ 7.30 | ≥ 8.00 |
| CCC(=O)Nc1ccc(Sc2nc(Nc3cc(C)n[nH]3)cc(N3CCC(N4CCCC4)CC3)n2)cc1 [Compound I-41] |  | 7.00 to 7.60 | > 6.70 | 6.90 to 7.60 | ≥ 7.30 | ≥ 8.00 |
| Cc1cc(Nc2cc(N3CCC(N4CCC(F)(F)C4)CC3)nc(Sc3ccc(NC(=O)CC(F)(F)F)cc3)n2)[nH]n1 [Compound I-82] | 7.30 to 8.00 |  | 6.30 to 6.70 | 6.90 to 7.60 |  | ≥ 8.00 |
| CCC(=O)Nc1ccc(Sc2nc(Nc3cc(C)n[nH]3)cc(N3CCC4(CCN(C)C4)CC3)n2)cc1 [Compound I-53] |  | > 7.60 | > 6.70 | 6.90 to 7.60 | ≥ 7.30 | ≥ 8.00 |
| CCC(=O)Nc1ccc(Sc2nc(Nc3cc(C)n[nH]3)cc(N3CCC(F)C3)n2)cc1 (stereo not drawn) [Compound I-18] | 7.30 to 8.00 | > 7.60 | 6.30 to 6.70 |  | 6.70 to 7.30 | ≥ 8.00 |
| CCC(=O)Nc1ccc(Sc2nc(Nc3cc(C)n[nH]3)cc(N3CCC(N4[C@H](C)CC[C@H]4C)CC3)n2)cc1 [Compound I-57] | 7.30 to 8.00 | > 7.60 |  |  | ≥ 7.30 | ≥ 8.00 |
| CCC(=O)Nc1ccc(Sc2nc(Nc3cc(C)[nH]n3)cc(N3CC[C@H](N(C)C)C3)n2)cc1 [Compound I-46] | 7.30 to 8.00 | > 7.60 |  |  | ≥ 7.30 | ≥ 8.00 |
| Cc1cnc(Nc2cc(N3CCC(N4CCCC4)CC3)nc(Sc3ccc(NC(=O)C4CC4)cc3)n2)s1 [Compound I-38] | 7.30 to 8.00 | > 7.60 |  |  | ≥ 7.30 | ≥ 8.00 |
| CCN[C@H]1CCN(c2cc(Nc3cc(C)n[nH]3)nc(Sc3ccc(NC(=O)CC)cc3)n2)C1 [Compound I-39] | 7.30 to 8.00 | > 7.60 |  |  | ≥ 7.30 | ≥ 8.00 |
| CCC(=O)Nc1ccc(Sc2nc(Nc3cc(C)n[nH]3)cc(N3CC[C@H](N4CCCC4)C3)n2)cc1 [Compound I-55] |  |  | 6.30 to 6.70 |  | ≥ 7.30 | ≥ 8.00 |
| CCC(=O)Nc1ccc(Sc2nc(Nc3cc(C)n[nH]3)cc(N3CC4CN(C(C)C)CC4C3)n2)cc1 (stereo not drawn) [Compound I-60] | 7.30 to 8.00 | > 7.60 |  |  | ≥ 7.30 | ≥ 8.00 |
| Cc1cc(Nc2cc(N3CCC(F)C3)nc(Sc3ccc(NC(=O)CC(F)(F)F)cc3)n2)[nH]n1 (stereo not drawn) [Compound I-71] | ≥ 8.00 | 7.00 to 7.60 | > 6.70 | ≥ 7.60 |  | ≥ 8.00 |
| Cc1cc(Nc2cc(N3CCC(F)C3)nc(Sc3ccc(NC(=O)CCC(F)(F)F)cc3)n2)[nH]n1 (stereo not drawn) [Compound I-81] | 7.30 to 8.00 | 7.00 to 7.60 | > 6.70 | 6.90 to 7.60 |  | ≥ 8.00 |
| CCC(=O)Nc1ccc(Sc2nc(Nc3cc(C)n[nH]3)cc(N3CCC(NC(C)(C)C)CC3)n2)cc1 [Compound I-7] | 7.30 to 8.00 | 7.00 to 7.60 | > 6.70 |  |  | ≥ 8.00 |
| Cc1cc(Nc2cc(N3CCC(N4CCOCC4)CC3)nc(Sc3ccc(NC(=O)CC(F)(F)F)cc3)n2)[nH]n1 [Compound I-72] | ≥ 8.00 |  | > 6.70 | ≥ 7.60 |  | ≥ 8.00 |
| CCC(=O)Nc1ccc(Sc2nc(Nc3cc(C)n[nH]3)cc(N3CCC(O)(C(C)(C)C)CC3)n2)cc1 [Compound I-61] | 7.30 to 8.00 |  | 6.30 to 6.70 |  | ≥ 7.30 | ≥ 8.00 |
